# Data as given in patent US12077503B2, “Substituted cyclic amides and their use as herbicides” (FMC CORPORATION, priority 2015, dated 2024).
# How the values were obtained:
# Type in all cases: in vivo
# [1] = tested on: giant foxtail (Setaria faberi); assay: Test G Post-Emergence Protocol; conditions: Setaria faberi, post-emergence, 312 h
# Outline: (§1)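 Eight days post-sowing, plants received a spray of test compound (acetone/water 50:50, 0.5% Tween 20) at 15.625, 62.5 or 250 g/ha. Glasshouse regime thereafter: 24/16 °C, 14 h light, 65% humidity. Assessment after 13 days on a 0–100 damage scale.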
# [2] = tested on: redroot pigweed (Amaranthus retroflexus); assay: Test G Post-Emergence Protocol; conditions: Amaranthus retroflexus, post-emergence, 312 h
# Outline: as §1
# [3] = tested on: barnyardgrass (Echinochloa crus-galli); assay: Test G Post-Emergence Protocol; conditions: Echinochloa crus-galli, post-emergence, 312 h
# Outline: as §1
# [4] = tested on: corn (Zea mays); assay: Test G Post-Emergence Protocol; conditions: Zea mays, post-emergence, 312 h
# Outline: as §1
# [5] = tested on: ivy-leaved morning glory (Ipomoea hederacea); assay: Test G Post-Emergence Protocol; conditions: Ipomoea, post-emergence, 312 h
# Outline: as §1
# [6] = tested on: velvetleaf (Abutilon theophrasti); assay: Test G Post-Emergence Protocol; conditions: Abutilon theophrasti, post-emergence, 312 h
# Outline: as §1
# [7] = tested on: giant foxtail (Setaria faberi); assay: Test G Pre-Emergence Protocol; conditions: Setaria faberi, pre-emergence, 312 h, evaluated after 13 days
# Outline: (§2)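 Visual injury (0–100) at day 13 after a single pre-emergence spray. Rates: 15.625, 62.5, 250 g/ha in acetone–water 50:50 with 0.5% Tween 20. Growth conditions: 24/16° C, 14 h light, 65% humidity.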
# [8] = tested on: redroot pigweed (Amaranthus retroflexus); assay: Test G Pre-Emergence Protocol; conditions: Amaranthus retroflexus, pre-emergence, 312 h, evaluated after 13 days
# Outline: as §2
# [9] = tested on: barnyardgrass (Echinochloa crus-galli); assay: Test G Pre-Emergence Protocol; conditions: Echinochloa crus-galli, pre-emergence, 312 h, evaluated after 13 days
# Outline: as §2
# [10] = tested on: corn (Zea mays); assay: Test G Pre-Emergence Protocol; conditions: Zea mays, pre-emergence, 312 h, evaluated after 13 days
# Outline: as §2
# [11] = tested on: ivy-leaved morning glory (Ipomoea hederacea); assay: Test G Pre-Emergence Protocol; conditions: Ipomoea, pre-emergence, 312 h, evaluated after 13 days
# Outline: as §2
# [12] = tested on: velvetleaf (Abutilon theophrasti); assay: Test G Pre-Emergence Protocol; conditions: Abutilon theophrasti, pre-emergence, 312 h, evaluated after 13 days
# Outline: as §2
structure (smiles),measurement,setting,value
Cc1nc(C(F)(F)F)ccc1NC(=O)[C@@H]1C(=O)N(C)C[C@H]1c1ccc(C(F)(F)F)cc1 (racemic) [Compound 1566],pest or weed control at 15.625 g/ha,"[1]; 15.625 g ai/ha, evaluated after 13 days (100=total damage to plant; 0=no damage to plant), read-out: Foxtail, Giant damage rating",0%
same,pest or weed control at 62.5 g/ha,"[1]; 62.5 g ai/ha, evaluated after 13 days, read-out: Foxtail, Giant damage rating (100=total damage to plant; 0=no damage to plant)",0%
same,pest or weed control at 250 g/ha,"[1]; 250 g ai/ha, evaluated after 13 days, read-out: damage to plant, Foxtail, Giant (100=total damage to plant; 0=no damage to plant)",0%
same,pest or weed control at 15.625 g/ha,"[2]; 15.625 g ai/ha, evaluated after 13 days (100=total damage to plant; 0=no damage to plant), read-out: Pigweed, Redroot damage rating",0%
same,pest or weed control at 62.5 g/ha,"[2]; 62.5 g ai/ha, evaluated after 13 days, read-out: Pigweed, Redroot damage rating (100=total damage to plant; 0=no damage to plant)",0%
same,pest or weed control at 250 g/ha,"[2]; 250 g ai/ha, evaluated after 13 days, read-out: damage to plant, Pigweed, Redroot (100=total damage to plant; 0=no damage to plant)",0%
same,pest or weed control at 15.625 g/ha,"[3]; 15.625 g ai/ha, evaluated after 13 days (100=total damage to plant; 0=no damage to plant), read-out: Barnyardgrass damage rating",0%
same,pest or weed control at 62.5 g/ha,"[3]; 62.5 g ai/ha, evaluated after 13 days, read-out: Barnyardgrass damage rating (100=total damage to plant; 0=no damage to plant)",10%
same,pest or weed control at 250 g/ha,"[3]; 250 g ai/ha, evaluated after 13 days, read-out: damage to plant, Barnyardgrass (100=total damage to plant; 0=no damage to plant)",20%
same,plant injury at 15.625 g/ha,"[4]; 15.625 g ai/ha, evaluated after 13 days (100=total damage to plant; 0=no damage to plant), read-out: Corn damage rating",0%
same,plant injury at 62.5 g/ha,"[4]; 62.5 g ai/ha, evaluated after 13 days, read-out: Corn damage rating (100=total damage to plant; 0=no damage to plant)",0%
same,plant injury at 250 g/ha,"[4]; 250 g ai/ha, evaluated after 13 days, read-out: damage to plant, Corn (100=total damage to plant; 0=no damage to plant)",0%
same,pest or weed control at 15.625 g/ha,"[5]; 15.625 g ai/ha, evaluated after 13 days (100=total damage to plant; 0=no damage to plant), read-out: Morningglory, Ivy-leaved damage rating",0%
same,pest or weed control at 62.5 g/ha,"[5]; 62.5 g ai/ha, evaluated after 13 days, read-out: Morningglory, Ivy-leaved damage rating (100=total damage to plant; 0=no damage to plant)",0%
same,pest or weed control at 250 g/ha,"[5]; 250 g ai/ha, evaluated after 13 days, read-out: damage to plant, Morningglory, Ivy-leaved (100=total damage to plant; 0=no damage to plant)",0%
same,pest or weed control at 15.625 g/ha,"[6]; 15.625 g ai/ha, evaluated after 13 days (100=total damage to plant; 0=no damage to plant), read-out: Velvetleaf damage rating",0%
same,pest or weed control at 62.5 g/ha,"[6]; 62.5 g ai/ha, evaluated after 13 days, read-out: Velvetleaf damage rating (100=total damage to plant; 0=no damage to plant)",0%
same,pest or weed control at 250 g/ha,"[6]; 250 g ai/ha, evaluated after 13 days, read-out: damage to plant, Velvetleaf (100=total damage to plant; 0=no damage to plant)",0%
same,pest or weed control at 15.625 g/ha,"[7]; 15.625 g ai/ha, read-out: Foxtail, Giant damage rating (100=total damage to plant; 0=no damage to plant)",0%
same,pest or weed control at 62.5 g/ha,"[7]; 62.5 g ai/ha, 100=total damage to plant, 0=no damage to plant, read-out: plant damage rating, Foxtail, Giant",0%
same,pest or weed control at 250 g/ha,"[7]; 250 g ai/ha, read-out: Foxtail, Giant damage rating (100=total damage to plant; 0=no damage to plant)",0%
same,pest or weed control at 15.625 g/ha,"[8]; 15.625 g ai/ha, read-out: Pigweed, Redroot damage rating (100=total damage to plant; 0=no damage to plant)",0%
same,pest or weed control at 62.5 g/ha,"[8]; 62.5 g ai/ha, 100=total damage to plant, 0=no damage to plant, read-out: plant damage rating, Pigweed, Redroot",0%
same,pest or weed control at 250 g/ha,"[8]; 250 g ai/ha, read-out: Pigweed, Redroot damage rating (100=total damage to plant; 0=no damage to plant)",0%
same,pest or weed control at 15.625 g/ha,"[9]; 15.625 g ai/ha, read-out: Barnyard grass damage rating (100=total damage to plant; 0=no damage to plant)",0%
same,pest or weed control at 62.5 g/ha,"[9]; 62.5 g ai/ha, 100=total damage to plant, 0=no damage to plant, read-out: plant damage rating, Barnyardgrass",0%
same,pest or weed control at 250 g/ha,"[9]; 250 g ai/ha, read-out: Barnyardgrass damage rating (100=total damage to plant; 0=no damage to plant)",0%
same,plant injury at 15.625 g/ha,"[10]; 15.625 g ai/ha, read-out: Corn damage rating (100=total damage to plant; 0=no damage to plant)",0%
same,plant injury at 62.5 g/ha,"[10]; 62.5 g ai/ha, 100=total damage to plant, 0=no damage to plant, read-out: plant damage rating, Corn",0%
same,plant injury at 250 g/ha,"[10]; 250 g ai/ha, read-out: Corn damage rating (100=total damage to plant; 0=no damage to plant)",0%
same,pest or weed control at 15.625 g/ha,"[11]; 15.625 g ai/ha, read-out: Morning-glory, Ivy-leaved damage rating (100=total damage to plant; 0=no damage to plant)",0%
same,pest or weed control at 62.5 g/ha,"[11]; 62.5 g ai/ha, 100=total damage to plant, 0=no damage to plant, read-out: plant damage rating, Morningglory, Ivy-leaved",0%
same,pest or weed control at 250 g/ha,"[11]; 250 g ai/ha, read-out: Morningglory, Ivy-leaved damage rating (100=total damage to plant; 0=no damage to plant)",0%
same,pest or weed control at 15.625 g/ha,"[12]; 15.625 g ai/ha, read-out: Velvetleaf damage rating (100=total damage to plant; 0=no damage to plant)",0%
same,pest or weed control at 62.5 g/ha,"[12]; 62.5 g ai/ha, 100=total damage to plant, 0=no damage to plant, read-out: plant damage rating, Velvetleaf",0%
same,pest or weed control at 250 g/ha,"[12]; 250 g ai/ha, read-out: Velvetleaf damage rating (100=total damage to plant; 0=no damage to plant)",0%
